Here are results for three compounds from ChEMBL document CHEMBL1143970, “Structure-activity relationships and CoMFA of N-3 substituted phenoxypropyl piperidine benzimidazol-2-one analogues as NOP receptor agonists with analgesic properties” (Bioorg Med Chem, 2008).

Broadly, the ED50 is the dose that gives a 50% effect, or the effect in half of the subjects. What is called solubility is the concentration that dissolves in the medium under given conditions.

Values after ≈ are worked out from the molar mass of the structure shown.

Data set [1] relates to Rattus norvegicus. Put plainly: Reversal of mechanically-induced allodynia in Wistar rat at 30 umol/kg, iv after 2 hrs by Brennan test. It counts as functional.
The test system of data set [2] is Rattus norvegicus. The data set is described as follows: Effect on mechanically-induced allodynia in iv dosed Wistar rat after 2 hrs by Brennan test. It counts as functional.
The nature of data set [3]: Solubility of the compound. The data set is classed as physicochemical.

For `COc1ccc(C)c(OC(CCN2CCC(n3c(=O)n(Cc4ncn[nH]4)c4ccccc43)CC2)C(C)C)c1` (centres undefined), the Activity with Rattus norvegicus [1] is 100%. In addition, in the data set with Rattus norvegicus [2], the ED50 is 12.1 µmol/kg.

`COc1ccc(C)c(OC(CCN2CCC(n3c(=O)n(Cc4c[nH]cn4)c4ccccc43)CC2)C(C)C)c1` (centres undefined): the concentration in solution in data set [3] (solubility) was 200 µg/mL (≈ 386 µM).

`COc1ccc(C)c(OC(CCN2CCC(n3c(=O)n(Cc4ncn[nH]4)c4ccccc43)CC2)C(C)C)c1.Cl` (single isomer, unassigned; (+)) had a solubility in data set [3] of 4 µg/mL.
